Source: publication PMC6905855, “Agonist-specific voltage-dependent gating of lysosomal two-pore Na^+ channels” (eLife, 2019)
“And” between values parts separate entries of the source, which are not always exact repeats. Equal values may be shown once.

Key:
[1] = system: non-transfected HEK293 cells; test: Whole-cell recordings in non-transfected cells; assay type: cell-based, Homo sapiens
Text: To our surprise, 5 out of the 23 compounds are well characterized as tri-cyclic anti-depressants (TCAs), which are believed to act on neurotransmitter transporters or voltage-gated Na^+ channels ([Cheng and Bahar, 2019]; [Pancrazio et al., 1998]). We therefore characterized the responses of TPC2 channels to TCAs in detail using electrophysiological methods. We first performed whole-cell recordings in HEK293 cells that were transfected with surface-expressed TPC2 mutant channels (TPC2-L^11L^12-AA; abbreviated as TPC2^LL/AA hereafter). No functional difference was noted between wild-type (WT) TPC2 and TPC2^LL/AA channels in terms of channel permeation and gating properties ([Wang et al., 2012]). To facilitate the detection of TPC2-specific currents, we used symmetric Na^+ solutions in the bath (extracellular) and pipette (cytosolic) solutions ([Wang et al., 2012]).
Whole-cell recordings were performed using pipette electrodes with resistance of 3–5 MΩ. […] All bath solutions were applied via a perfusion system that allowed complete solution exchange within a few seconds. Data were collected using an Axopatch 200A patch clamp amplifier, Digidata 1440, and pClamp 10.2 software (Axon Instruments). […] All experiments were conducted at room temperature (21–23°C), and all recordings were analyzed with pClamp 10.2, and Origin 8.0 (OriginLab, Northampton, MA).

hTPC1^R540I = system: T1, hTPC1^R540I; test: Whole-endolysosome recordings of ITPC1-R540I; assay type: biochemical, human
T1 construct: expressed in transfected cells; host or cells: Cos1

[2] = system: surface-expressing mutant TRPML1 channels (TRPML1^4A); test: Whole-cell recordings of ITRPML1-4A; assay type: cell-based; details: TRPML1-4A wc; 100µM; individual cells
TPC2 I551R = system: T2, TPC2 I551R; test: Whole-endolysosome recordings of ITPC2-I551R; assay type: biochemical, human
T2 construct: expressed in transfected cells

TPC2^N653G = system: T3, TPC2^N653G; test: Whole-endolysosome recordings of ITPC2-N653G; assay type: biochemical, human; details: for PX / PNa, K+: TPC2 N653G, agonist-activated current
T3 construct: expressed in transfected cells

TPC2^LL/AA = system: T4, TPC2^LL/AA; test: Inside-out patch recordings of ITPC2; assay type: biochemical, human; details: for time course of LyNa-VA1.2-induced ITPC2: I/o
T4 construct: expressed in transfected cells; host or cells: HEK293

[3] = inside out, 200 µM, individual recordings
[4] = inside-out, 200 µM, mean ± S.E.M

Compound: Nc1nc2ccc(OC(F)(F)F)cc2s1 [LyNA1, Riluzole]
- activation of whole-cell currents in non-transfected cells (in words) [1]: not in non-transfected HEK293 cells

Compound: CN(C)CCCN1c2ccccc2CCc2ccc(Cl)cc21 [LyNa-VA1.1, Clomipramine]
- effect on ITPC1-R540I (in words) (hTPC1^R540I): dramatic enhancement of inward currents at negative potentials
- current, whole-cell ITRPML1-4A [2]: 28.1 pA and 29.7 pA and 114.4 pA and 172.7 pA

Compound: CNCCCN1c2ccccc2CCc2ccccc21 [LyNa-VA1.2, Desipramine]
- activation of ITPC2-I551R (in words) (TPC2 I551R): failed to affect LyNa-VA1.2 activation
- activation of TPC2 N653G (in words) (TPC2^N653G): did not alter the ability of LyNa-VA1.2 to enhance channel activation
- PX / PNa, K+ (TPC2^N653G; individual): 0.5576 and 0.6267 and 0.3361 and 0.4961
- PX / PNa, K+ (TPC2^N653G; mean): 0.5041
- activation of ITPC2 in inside-out patch (in words) (TPC2^LL/AA; 200 µM): evoked
- time course of LyNa-VA1.2-induced ITPC2 (TPC2^LL/AA; time 0 s): -0.06927
- time course of LyNa-VA1.2-induced ITPC2 (TPC2^LL/AA; time 2 s): -0.0966
- time course of LyNa-VA1.2-induced ITPC2 (TPC2^LL/AA; time 4 s): -0.00941
- time course of LyNa-VA1.2-induced ITPC2 (TPC2^LL/AA; time 6 s): -8.49E-04
- time course of LyNa-VA1.2-induced ITPC2 (TPC2^LL/AA; time 8 s): -0.06407
- time course of LyNa-VA1.2-induced ITPC2 (TPC2^LL/AA; time 10 s): -0.08365
- time course of LyNa-VA1.2-induced ITPC2 (TPC2^LL/AA; time 12 s): -0.08538
- time course of LyNa-VA1.2-induced ITPC2 (TPC2^LL/AA; time 14 s): -0.09864
- time course of LyNa-VA1.2-induced ITPC2 (TPC2^LL/AA; time 16 s): -0.09741
- time course of LyNa-VA1.2-induced ITPC2 (TPC2^LL/AA; time 18 s): -0.1284
- time course of LyNa-VA1.2-induced ITPC2 (TPC2^LL/AA; time 20 s): -0.2599
- time course of LyNa-VA1.2-induced ITPC2 (TPC2^LL/AA; time 22 s): -0.3874
- time course of LyNa-VA1.2-induced ITPC2 (TPC2^LL/AA; time 24 s): -0.5101
- time course of LyNa-VA1.2-induced ITPC2 (TPC2^LL/AA; time 26 s): -0.54
- time course of LyNa-VA1.2-induced ITPC2 (TPC2^LL/AA; time 28 s): -0.5044
- time course of LyNa-VA1.2-induced ITPC2 (TPC2^LL/AA; time 30 s): -0.6046
- time course of LyNa-VA1.2-induced ITPC2 (TPC2^LL/AA; time 32 s): -0.6923
- time course of LyNa-VA1.2-induced ITPC2 (TPC2^LL/AA; time 34 s): -0.8892
- time course of LyNa-VA1.2-induced ITPC2 (TPC2^LL/AA; time 36 s): -0.754
- time course of LyNa-VA1.2-induced ITPC2 (TPC2^LL/AA; time 38 s): -0.8074
- time course of LyNa-VA1.2-induced ITPC2 (TPC2^LL/AA; time 40 s): -0.7387
- time course of LyNa-VA1.2-induced ITPC2 (TPC2^LL/AA; time 42 s): -0.8794
- time course of LyNa-VA1.2-induced ITPC2 (TPC2^LL/AA; time 44 s): -0.9937
- time course of LyNa-VA1.2-induced ITPC2 (TPC2^LL/AA; time 46 s): -1
- time course of LyNa-VA1.2-induced ITPC2 (TPC2^LL/AA; time 48 s): -0.9555
- time course of LyNa-VA1.2-induced ITPC2 (TPC2^LL/AA; time 50 s): -0.9211
- time course of LyNa-VA1.2-induced ITPC2 (TPC2^LL/AA; time 52 s): -0.87
- Latency of induced ITPC2 (TPC2^LL/AA; [3]): 8 s and 12 s and 14 s
- Time constant (τ) of induced ITPC2 (TPC2^LL/AA; [3]): 13.9 s and 16.3 s and 17.9 s and 21.3 s
- latency of TPC2 activation (TPC2^LL/AA; [4]): 12 ± 1 s
- time constant (τ) of TPC2 activation (TPC2^LL/AA; [4]): 17 ± 2 s
